Tested on: MV-4-11 cells
Assay: Gene expression microarray analysis (Affymetrix PrimeView) and GSEA
Format: cell-based, human
Set-up: RFU PODN (11730768_x_at) / Fold change /veh PODN (11730768_x_at) / RFU LINC00158 (11744669_a_at) / Fold change /veh LINC00158 (11744669_a_at) / RFU DUSP10 (11751237_a_at) / Fold change /veh DUSP10 (11751237_a_at) / RFU ID3 (11757404_x_at) / Fold change /veh ID3 (11757404_x_at) / RFU PLEKHG5 (11737974_s_at) / Fold change /veh PLEKHG5 (11737974_s_at) / RFU LRRC4B (11730491_at) / Fold change /veh LRRC4B (11730491_at) / RFU GIMAP4 (11747438_a_at) / Fold change /veh GIMAP4 (11747438_a_at) / RFU KRT8 (11758183_x_at) / Fold change /veh KRT8 (11758183_x_at) / RFU CNN1 (11734310_a_at) / Fold change /veh CNN1 (11734310_a_at) / RFU VPS37D (11726825_at) / Fold change /veh VPS37D (11726825_at) / RFU C10orf10 (11716522_x_at) / Fold change /veh C10orf10 (11716522_x_at) / RFU KIR2DL2 /// KIR2DL4 /// KIR2DL5A /// KIR2DL5B /// KIR2DS1 /// KIR2DS2 /// KIR2DS3 /// KIR2DS4 /// KIR3DL3 /// KIR3DL3 /// KIR3DS1 (11738374_at) / Fold change /veh KIR2DL2 /// KIR2DL4 /// KIR2DL5A /// KIR2DL5B /// KIR2DS1 /// KIR2DS2 /// KIR2DS3 /// KIR2DS4 /// KIR3DL3 /// KIR3DL3 /// KIR3DS1 (11738374_at) / RFU C1QL1 (11718748_at) / Fold change /veh C1QL1 (11718748_at) / RFU TMPRSS4 (11747572_a_at) / Fold change /veh TMPRSS4 (11747572_a_at) / RFU HAMP (11756126_x_at) / Fold change /veh HAMP (11756126_x_at) / RFU RNFT2 (11725882_a_at) / Fold change /veh RNFT2 (11725882_a_at) / RFU NR4A2 (11747474_a_at) / Fold change /veh NR4A2 (11747474_a_at) / RFU ABCC12 (11746883_a_at) / Fold change /veh ABCC12 (11746883_a_at) / RFU TMEM136 (11760407_x_at) / Fold change /veh TMEM136 (11760407_x_at) / RFU CLDN22 /// WWC2 (11732394_at) / Fold change /veh CLDN22 /// WWC2 (11732394_at) / RFU HLA-DPB1 (11760878_x_at) / Fold change /veh HLA-DPB1 (11760878_x_at) / RFU SPINT1 (11716480_a_at) / Fold change /veh SPINT1 (11716480_a_at) / RFU GAP43 (11754022_s_at) / Fold change /veh GAP43 (11754022_s_at) / RFU A4GNT (11735810_at) / Fold change /veh A4GNT (11735810_at) / RFU PRB3 (11715151_x_at) / Fold change /veh PRB3 (11715151_x_at) / RFU TUBB4B (11761932_at) / Fold change /veh TUBB4B (11761932_at) / RFU CAPN14 (11732068_a_at) / Fold change /veh CAPN14 (11732068_a_at) / RFU TMCC2 (11721928_a_at) / Fold change /veh TMCC2 (11721928_a_at) / RFU IRGQ (11745062_a_at) / Fold change /veh IRGQ (11745062_a_at) / RFU FAM174B (11720279_a_at) / Fold change /veh FAM174B (11720279_a_at) / RFU TMPRSS4 (11748680_a_at) / Fold change /veh TMPRSS4 (11748680_a_at) / RFU FAM212B (11763350_a_at) / Fold change /veh FAM212B (11763350_a_at) / RFU PLEKHG5 (11743358_a_at) / Fold change /veh PLEKHG5 (11743358_a_at) / RFU ZSCAN30 (11745921_a_at) / Fold change /veh ZSCAN30 (11745921_a_at) / RFU CMKLR1 (11741424_a_at) / Fold change /veh CMKLR1 (11741424_a_at) / RFU LOC101060620 /// MAPK8IP1 (11723275_at) / Fold change /veh LOC101060620 /// MAPK8IP1 (11723275_at) / RFU SPTSSB (11747773_x_at) / Fold change /veh SPTSSB (11747773_x_at) / RFU PRSS12 (11739890_at) / Fold change /veh PRSS12 (11739890_at) / RFU BIN1 (11741810_x_at) / Fold change /veh BIN1 (11741810_x_at) / RFU WNT11 (11732464_a_at) / Fold change /veh WNT11 (11732464_a_at) / RFU C10orf10 (11716521_a_at) / Fold change /veh C10orf10 (11716521_a_at) / RFU C5orf56 (11738089_at) / Fold change /veh C5orf56 (11738089_at) / RFU CYB561 (11721691_x_at) / Fold change /veh CYB561 (11721691_x_at) / RFU ANKRD19P (11752326_a_at) / Fold change /veh ANKRD19P (11752326_a_at) / RFU OR2T12 /// OR2T33 /// OR2T8 (11738714_s_at) / Fold change /veh OR2T12 /// OR2T33 /// OR2T8 (11738714_s_at) / RFU VCAN (11748164_a_at) / Fold change /veh VCAN (11748164_a_at) / RFU JSRP1 (11732532_at) / Fold change /veh JSRP1 (11732532_at) / RFU KRTAP10-11 (11738290_x_at) / Fold change /veh KRTAP10-11 (11738290_x_at) / RFU MYO3A (11730013_a_at) / Fold change /veh MYO3A (11730013_a_at) / RFU EBF3 (11725865_a_at) / Fold change /veh EBF3 (11725865_a_at) / RFU CAMK2N1 (11719241_x_at) / Fold change /veh CAMK2N1 (11719241_x_at) / RFU C5orf56 (11738088_a_at) / Fold change /veh C5orf56 (11738088_a_at) / RFU OLFML3 (11715873_a_at) / Fold change /veh OLFML3 (11715873_a_at) / RFU LOC100653217 /// NTM (11731650_a_at) / Fold change /veh LOC100653217 /// NTM (11731650_a_at) / RFU MAPK11 (11762145_a_at) / Fold change /veh MAPK11 (11762145_a_at) / RFU FIZ1 (11724087_x_at) / Fold change /veh FIZ1 (11724087_x_at) / RFU OASL (11726364_x_at) / Fold change /veh OASL (11726364_x_at) / RFU SOX15 (11748057_x_at) / Fold change /veh SOX15 (11748057_x_at) / RFU CD79A (11719716_a_at) / Fold change /veh CD79A (11719716_a_at) / RFU HIST1H1D (11736915_at) / Fold change /veh HIST1H1D (11736915_at) / RFU CASKIN2 (11723855_a_at) / Fold change /veh CASKIN2 (11723855_a_at) / RFU LOC730098 (11760151_x_at) / Fold change /veh LOC730098 (11760151_x_at) / RFU OR4N2 (11742367_at) / Fold change /veh OR4N2 (11742367_at) / RFU PRRT2 (11749266_a_at) / Fold change /veh PRRT2 (11749266_a_at) / RFU SNX32 (11753110_a_at) / Fold change /veh SNX32 (11753110_a_at) / RFU CDHR5 (11726645_a_at) / Fold change /veh CDHR5 (11726645_a_at) / RFU RCAN1 (11760418_a_at) / Fold change /veh RCAN1 (11760418_a_at) / RFU FAM167A (11723789_a_at) / Fold change /veh FAM167A (11723789_a_at) / RFU FAM26E (11764081_at) / Fold change /veh FAM26E (11764081_at) / RFU ISYNA1 (11749810_s_at) / Fold change /veh ISYNA1 (11749810_s_at) / RFU ACY1 (11761880_at) / Fold change /veh ACY1 (11761880_at) / RFU 11764098_at / Fold change /veh 11764098_at / RFU SAMD14 (11745864_x_at) / Fold change /veh SAMD14 (11745864_x_at) / RFU NPB (11741838_a_at) / Fold change /veh NPB (11741838_a_at) / RFU TMPRSS6 (11731388_a_at) / Fold change /veh TMPRSS6 (11731388_a_at) / RFU KRTAP10-2 (11738614_at) / Fold change /veh KRTAP10-2 (11738614_at) / RFU ARHGAP8 /// PRR5-ARHGAP8 (11727945_x_at) / Fold change /veh ARHGAP8 /// PRR5-ARHGAP8 (11727945_x_at) / RFU KRTAP5-7 /// NADSYN1 (11734609_at) / Fold change /veh KRTAP5-7 /// NADSYN1 (11734609_at) / RFU RASL12 (11751679_a_at) / Fold change /veh RASL12 (11751679_a_at) / RFU CDKN2B (11736163_a_at) / Fold change /veh CDKN2B (11736163_a_at) / RFU PRF1 (11729649_at) / Fold change /veh PRF1 (11729649_at) / RFU, ZNF638 /// ZNF638-IT1 / Fold change vs veh, ZNF638 /// ZNF638-IT1 / RFU, PANK3 / Fold change vs veh, PANK3 / RFU, SH3YL1 / Fold change vs veh, SH3YL1 / RFU, ZEB2 / Fold change vs veh, ZEB2 / RFU, NRIP1 / Fold change vs veh, NRIP1 / RFU, PTTG1IP / Fold change vs veh, PTTG1IP / RFU, CAPN2 / Fold change vs veh, CAPN2 / RFU, MED14 / Fold change vs veh, MED14 / RFU, SNORA58 / Fold change vs veh, SNORA58 / RFU, C1orf63 / Fold change vs veh, C1orf63 / RFU, LRRFIP1 / Fold change vs veh, LRRFIP1 / RFU, NDUFAF7 / Fold change vs veh, NDUFAF7 / RFU, SLC12A2 / Fold change vs veh, SLC12A2 / RFU, IBTK / Fold change vs veh, IBTK / RFU, ESF1 / Fold change vs veh, ESF1 / Fold change vs veh, TMEM50B / RFU, TAOK1 / Fold change vs veh, TAOK1 / RFU, ACBD3 / Fold change vs veh, ACBD3 / RFU, TMA16 / Fold change vs veh, TMA16 / RFU, RWDD3 / Fold change vs veh, RWDD3 / RFU, BCAT1 / Fold change vs veh, BCAT1 / RFU, EDEM3 / Fold change vs veh, EDEM3 / RFU, TMEM33 / Fold change vs veh, TMEM33 / RFU, WDR75 / Fold change vs veh, WDR75 / RFU, AHCTF1 / Fold change vs veh, AHCTF1 / RFU, TFRC / Fold change vs veh, TFRC / RFU, ZDHHC17 / Fold change vs veh, ZDHHC17 / RFU, NOM1 / Fold change vs veh, NOM1 / RFU, ARL8B / Fold change vs veh, ARL8B / RFU, ZBTB11 / Fold change vs veh, ZBTB11 / RFU, TAMM41 / Fold change vs veh, TAMM41 / RFU, KIAA1704 /// LOC100996395 / Fold change vs veh, KIAA1704 /// LOC100996395 / RFU, ING1 / Fold change vs veh, ING1 / RFU, TRMT61B / Fold change vs veh, TRMT61B / RFU, FUBP3 / Fold change vs veh, FUBP3 / RFU, TP53 / Fold change vs veh, TP53 / RFU, TNKS2 / Fold change vs veh, TNKS2 / RFU, ZFP14 / Fold change vs veh, ZFP14 / RFU, ACTR2 / Fold change vs veh, ACTR2 / RFU, PPP3R1 / Fold change vs veh, PPP3R1 / RFU, PIK3R1 / Fold change vs veh, PIK3R1 / RFU, HNRNPA1 / Fold change vs veh, HNRNPA1 / RFU, RNF170 / Fold change vs veh, RNF170 / RFU, ZNF28 / Fold change vs veh, ZNF28 / RFU, RNGTT / Fold change vs veh, RNGTT / RFU, OGT / Fold change vs veh, OGT / RFU, BRD1 / Fold change vs veh, BRD1 / RFU, MARS / Fold change vs veh, MARS / RFU, ZNF655 / Fold change vs veh, ZNF655 / RFU, FAHD1 / Fold change vs veh, FAHD1 / RFU, BDP1 / Fold change vs veh, BDP1 / RFU, LRRCC1 / Fold change vs veh, LRRCC1 / RFU, ARID1A / Fold change vs veh, ARID1A / RFU, ZNF146 / Fold change vs veh, ZNF146 / RFU, ZNF330 / Fold change vs veh, ZNF330 / RFU, GPN3 / Fold change vs veh, GPN3 / RFU, C9orf123 / Fold change vs veh, C9orf123 / RFU, N4BP2L2 / Fold change vs veh, N4BP2L2 / RFU, ARFIP1 / Fold change vs veh, ARFIP1 / RFU, FAM179B / Fold change vs veh, FAM179B / RFU, BCL10 / Fold change vs veh, BCL10 / RFU, UHRF1BP1L / Fold change vs veh, UHRF1BP1L / RFU, BET1 / Fold change vs veh, BET1 / RFU, CNOT2 / Fold change vs veh, CNOT2 / RFU, ZNF268 / Fold change vs veh, ZNF268 / Fold change vs veh, ZNF507 / RFU, DGCR2 / Fold change vs veh, DGCR2 / RFU, WDSUB1 / Fold change vs veh, WDSUB1 / Fold change vs veh, HSP90B1 /// MIR3652 / RFU, ADSS / Fold change vs veh, ADSS / RFU, GK / Fold change vs veh, GK / RFU, ZNF148 / Fold change vs veh, ZNF148 / RFU, TAF9 / Fold change vs veh, TAF9 / RFU, SLC1A5 / Fold change vs veh, SLC1A5 / RFU, SLMO2 / Fold change vs veh, SLMO2 / RFU, ABCC4 / Fold change vs veh, ABCC4 / RFU, LOC101060439 /// RAP1B / Fold change vs veh, LOC101060439 /// RAP1B / RFU, RFX7 / Fold change vs veh, RFX7 / RFU, GTPBP10 / Fold change vs veh, GTPBP10 / RFU, CNEP1R1 / Fold change vs veh, CNEP1R1 / RFU, BIVM-ERCC5 /// ERCC5 / Fold change vs veh, BIVM-ERCC5 /// ERCC5 / RFU, ILF3 / Fold change vs veh, ILF3 / RFU 11762660_at / Fold change /veh 11762660_at / RFU VCAN (11757783_s_at) / Fold change /veh VCAN (11757783_s_at) / RFU DDX43 (11728927_at) / Fold change /veh DDX43 (11728927_at) / RFU KRT8 (11758188_x_at) / Fold change /veh KRT8 (11758188_x_at) / RFU NKD1 (11759106_at) / Fold change /veh NKD1 (11759106_at) / RFU SRD5A1 (11742802_a_at) / Fold change /veh SRD5A1 (11742802_a_at) / RFU TPSAB1 /// TPSB2 (11721975_s_at) / Fold change /veh TPSAB1 /// TPSB2 (11721975_s_at) / RFU GSTM3 (11746129_a_at) / Fold change /veh GSTM3 (11746129_a_at) / RFU IL23R (11737362_x_at) / Fold change /veh IL23R (11737362_x_at) / RFU TMEM51 (11727254_a_at) / Fold change /veh TMEM51 (11727254_a_at) / RFU PIWIL2 (11732686_x_at) / Fold change /veh PIWIL2 (11732686_x_at) / RFU ORM1 (11744905_x_at) / Fold change /veh ORM1 (11744905_x_at) / RFU CCDC152 (11743942_at) / Fold change /veh CCDC152 (11743942_at) / RFU ECM1 (11717891_a_at) / Fold change /veh ECM1 (11717891_a_at) / RFU IL23R (11748794_a_at) / Fold change /veh IL23R (11748794_a_at) / RFU TNFAIP8L3 (11732012_x_at) / Fold change /veh TNFAIP8L3 (11732012_x_at) / RFU MBOAT4 (11741988_at) / Fold change /veh MBOAT4 (11741988_at) / RFU 11764193_at / Fold change /veh 11764193_at / RFU TMEM53 (11763286_at) / Fold change /veh TMEM53 (11763286_at) / RFU MAGEB2 (11727129_at) / Fold change /veh MAGEB2 (11727129_at) / RFU TMEM200A (11744735_a_at) / Fold change /veh TMEM200A (11744735_a_at) / RFU CCDC152 (11751479_a_at) / Fold change /veh CCDC152 (11751479_a_at) / RFU FAM211A (11726209_a_at) / Fold change /veh FAM211A (11726209_a_at) / RFU RGS16 (11746705_a_at) / Fold change /veh RGS16 (11746705_a_at) / RFU VCAN (11755009_s_at) / Fold change /veh VCAN (11755009_s_at) / RFU RHOB (11743442_s_at) / Fold change /veh RHOB (11743442_s_at) / RFU RGS16 (11720943_a_at) / Fold change /veh RGS16 (11720943_a_at) / RFU RGS16 (11720944_at) / Fold change /veh RGS16 (11720944_at) / RFU, VPS4B / Fold change vs veh, VPS4B / RFU, CREB1 / Fold change vs veh, CREB1 / RFU, DNAJC13 / Fold change vs veh, DNAJC13 / RFU, GNAQ / Fold change vs veh, GNAQ / RFU, CDK5R1 / Fold change vs veh, CDK5R1 / RFU, ZRANB3 / Fold change vs veh, ZRANB3 / RFU, CUL4A / Fold change vs veh, CUL4A / RFU, CCNY / Fold change vs veh, CCNY / RFU, UFL1 / Fold change vs veh, UFL1 / RFU, COG3 / Fold change vs veh, COG3 / RFU, DIAPH2 / Fold change vs veh, DIAPH2 / RFU, SKA2 / Fold change vs veh, SKA2 / RFU, AFF3 / Fold change vs veh, AFF3 / RFU, LMF1 / Fold change vs veh, LMF1 / RFU, IPO11 / Fold change vs veh, IPO11 / RFU, DFFB / Fold change vs veh, DFFB / RFU, FOXP1 / Fold change vs veh, FOXP1 / RFU, CARD8 / Fold change vs veh, CARD8 / RFU, STRN3 / Fold change vs veh, STRN3 / RFU, ADK / Fold change vs veh, ADK / RFU, RASSF2 / Fold change vs veh, RASSF2 / RFU, WIPF1 / Fold change vs veh, WIPF1 / RFU, LARP1B / Fold change vs veh, LARP1B / RFU, RASA1 / Fold change vs veh, RASA1 / RFU, RB1 / Fold change vs veh, RB1 / RFU, PPFIA1 / Fold change vs veh, PPFIA1 / RFU, MAT2A / Fold change vs veh, MAT2A / RFU, CCT5 / Fold change vs veh, CCT5 / RFU, WDR92 / Fold change vs veh, WDR92 / RFU, CUX1 / Fold change vs veh, CUX1 / RFU, TTC7A / Fold change vs veh, TTC7A / RFU, TMEM135 / Fold change vs veh, TMEM135 / RFU, DEPTOR / Fold change vs veh, DEPTOR / RFU, CPM / Fold change vs veh, CPM / RFU, DNAJB6 / Fold change vs veh, DNAJB6 / RFU, CACNA2D3 / Fold change vs veh, CACNA2D3 / RFU, DTX4 / Fold change vs veh, DTX4 / RFU, TFCP2 / Fold change vs veh, TFCP2 / RFU, GMCL1 /// GMCL1P1 / Fold change vs veh, GMCL1 /// GMCL1P1 / RFU, AEBP2 / Fold change vs veh, AEBP2 / RFU, SNHG1 /// SNORD22 /// SNORD25 /// SNORD26 /// SNORD27 /// SNORD28 /// SNORD29 /// SNORD31 / Fold change vs veh, SNHG1 /// SNORD22 /// SNORD25 /// SNORD26 /// SNORD27 /// SNORD28 /// SNORD29 /// SNORD31 / Fold change (Aza/veh), C12orf56 (ProbeSet 11735607_a_at) / Fold change (ACY-1035/veh), C12orf56 (ProbeSet 11735607_a_at) / Fold change (Aza/veh), FGFR1OP (ProbeSet 11751329_s_at) / Fold change (ACY-1035/veh), FGFR1OP (ProbeSet 11751329_s_at) / Fold change (Aza/veh), VPS36 (ProbeSet 11739960_a_at) / Fold change (ACY-1035/veh), VPS36 (ProbeSet 11739960_a_at) / RFU SYPL1 (11715823_x_at) / Fold change /veh SYPL1 (11715823_x_at) / RFU IGFBP7 (11715501_s_at) / Fold change /veh IGFBP7 (11715501_s_at) / RFU REEP3 (11722064_at) / Fold change /veh REEP3 (11722064_at) / RFU IGLL1 (11728026_x_at) / Fold change /veh IGLL1 (11728026_x_at): dose or concentration left out as unconfirmed
Details: MV-4-11 cells, 48 hours

## Nc1ccc(-c2cccs2)cc1NC(=O)c1ccc2c(c1)cc(C1CC1)n2CCN1CCOCC1 [ACY-1035]
  RFU PRSS12 (11739890_at): 8.28 RFU

Source: publication PMC5218480 (PLoS ONE, 2017)
